Laboratory results from PubChem BioAssay (NCI).
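Test compounds were applied to cells in 96-well plates for 48 hours at 5 doses. Here, GI50 denotes the concentration required for 50% inhibition of growth. The concentration for full growth arrest is given as TGI.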

Key:
Assay in all cases: NCI tumour cell line growth inhibition, 48 h
[1] = tested on: EKVX NSCLC
[2] = tested on: HOP-92 NSCLC
[3] = tested on: SR leukemia
[4] = tested on: SNB-75 CNS
[5] = tested on: SW-620 colon
[6] = tested on: OVCAR-5 ovarian
[7] = tested on: NCI/ADR-RES ovarian
[8] = tested on: NCI-H460 lung
[9] = tested on: RXF 393 renal
[10] = tested on: OVCAR-4 ovarian
[11] = tested on: OVCAR-8 ovarian
[12] = tested on: MDA-MB-231 breast
[13] = tested on: IGROV1 ovarian
[14] = tested on: HS 578T breast
[15] = tested on: SK-OV-3 ovarian
[16] = tested on: CAKI-1 renal
[17] = tested on: SK-MEL-28 melanoma
[18] = tested on: RPMI-8226 leukemia
[19] = tested on: ACHN renal
[20] = tested on: HCC-2998 colon
[21] = tested on: MDA-MB-435
[22] = tested on: SN12C renal
[23] = tested on: SK-MEL-5 melanoma
[24] = tested on: SF-295 CNS
[25] = tested on: UACC-257 melanoma
[26] = tested on: U251 CNS
[27] = tested on: HL-60(TB) leukemia
[28] = tested on: KM12 colon
[29] = tested on: UO-31 renal
[30] = tested on: DU-145 prostate
[31] = tested on: HCT-15 colon
[32] = tested on: TK-10 renal
[33] = tested on: HOP-62 NSCLC
[34] = tested on: OVCAR-3 ovarian
[35] = tested on: NCI-H226 lung
[36] = tested on: 786-0 renal
[37] = tested on: NCI-H23 lung
[38] = tested on: A498 renal
[39] = tested on: A549 NSCLC
[40] = tested on: SNB-19 CNS
[41] = tested on: MALME-3M melanoma
[42] = tested on: PC-3 prostate
[43] = tested on: SK-MEL-2 melanoma
[44] = tested on: UACC-62 melanoma
[45] = tested on: BT-549 breast
[46] = tested on: SF-268 CNS
[47] = tested on: MOLT-4 leukemia
[48] = tested on: CCRF-CEM leukemia
[49] = tested on: HT29 colon
[50] = tested on: SF-539 CNS
[51] = tested on: K-562 leukemia

SMILES: CC(=O)Nc1ccc(NC(=O)Nc2cccc(-c3nc(-c4ccc(NC(=O)c5cccnc5)cc4Cl)no3)c2)cc1C(F)(F)F
- GI50 [1]: 1400 nM
- TGI [1]: 9160 nM
- GI50 [2]: 1280 nM
- TGI [2]: 3010 nM
- GI50 [3]: 296 nM
- TGI [3]: 2350 nM
- GI50 [4]: 217 nM
- TGI [4]: 814 nM
- GI50 [5]: 430 nM
- TGI [5]: 1860 nM
- GI50 [6]: 987 nM
- TGI [6]: 2640 nM
- GI50 [7]: > 100000 nM
- TGI [7]: > 100000 nM
- GI50 [8]: 411 nM
- TGI [8]: 1480 nM
- GI50 [9]: 359 nM
- TGI [9]: 1130 nM
- GI50 [10]: 1070 nM
- TGI [10]: 2620 nM
- GI50 [11]: 712 nM
- TGI [11]: 3250 nM
- GI50 [12]: 658 nM
- TGI [12]: 2330 nM
- GI50 [13]: 739 nM
- TGI [13]: 2340 nM
- GI50 [14]: 503 nM
- TGI [14]: 2990 nM
- GI50 [15]: 1290 nM
- TGI [15]: 3030 nM
- GI50 [16]: 570 nM
- TGI [16]: 1970 nM
- GI50 [17]: 890 nM
- TGI [17]: 2200 nM
- GI50 [18]: 538 nM
- TGI [18]: 2900 nM
- GI50 [19]: 6040 nM
- TGI [19]: > 100000 nM
- GI50 [20]: 998 nM
- TGI [20]: 2560 nM
- GI50 [21]: 174 nM
- TGI [21]: 406 nM
- GI50 [22]: 685 nM
- TGI [22]: 2120 nM
- GI50 [23]: 612 nM
- TGI [23]: 1930 nM
- GI50 [24]: 454 nM
- TGI [24]: 1370 nM
- GI50 [25]: 1130 nM
- TGI [25]: 2930 nM
- GI50 [26]: 564 nM
- TGI [26]: 2260 nM
- GI50 [27]: 307 nM
- TGI [27]: 1130 nM
- GI50 [28]: 438 nM
- TGI [28]: 1790 nM
- GI50 [29]: 4300 nM
- TGI [29]: > 35700 nM
- GI50 [30]: 519 nM
- TGI [30]: 4320 nM
- GI50 [31]: 2080 nM
- TGI [31]: > 100000 nM
- GI50 [32]: 1990 nM
- TGI [32]: 4670 nM
- GI50 [33]: 739 nM
- TGI [33]: 2700 nM
- GI50 [34]: 382 nM
- TGI [34]: 1420 nM
- GI50 [35]: 729 nM
- TGI [35]: 2240 nM
- GI50 [36]: 1120 nM
- TGI [36]: 2720 nM
- GI50 [37]: 601 nM
- TGI [37]: 2190 nM
- GI50 [38]: 435 nM
- TGI [38]: 1510 nM
- GI50 [39]: 1070 nM
- TGI [39]: 4430 nM
- GI50 [40]: 477 nM
- TGI [40]: 2150 nM
- GI50 [41]: 479 nM
- TGI [41]: 1740 nM
- GI50 [42]: 477 nM
- TGI [42]: 2180 nM
- GI50 [43]: 1270 nM
- TGI [43]: 3290 nM
- GI50 [44]: 412 nM
- TGI [44]: 1630 nM
- GI50 [45]: 1120 nM
- TGI [45]: 3040 nM
- GI50 [46]: 1100 nM
- TGI [46]: 3380 nM
- GI50 [47]: 620 nM
- TGI [47]: 3000 nM
- GI50 [48]: 395 nM
- TGI [48]: > 100000 nM
- GI50 [49]: 380 nM
- TGI [49]: 1690 nM
- GI50 [50]: 341 nM
- TGI [50]: 1250 nM
- GI50 [51]: 320 nM
- TGI [51]: 1760 nM
